Reference: article PMC5503199 (Molecular microbiology, 2009)
Like-named read-outs stand apart in the source and are kept apart here.

Key:
[1] = test system: cbcXWV from B728a in QAC transporter-deficient BT strain; format: cell-based, Pseudomonas syringae pv. syringae; settings: BT(pCbcB728a), unlabelled competitor 0.5 mM, 10 min
[2] = test system: S. meliloti Cho transporter ChoXWV; format: cell-based, Sinorhizobium meliloti; settings: MKH13; pNchoXWV, Plasmid 2 None; SBP ChoX; substrate 10 μM; single replication
[3] = test system: P. syringae BT-derived mutants; format: cell-based, Pseudomonas syringae pv. syringae; settings: pN
CbcWV with CaiXPAO1 = format: cell-based, Pseudomonas aeruginosa; settings: MKH13; pNcbcWV, pT-PA5388; SBP CaiXPAO1; substrate 10 μM; single replication
[4] = test system: Cbc core transporter CbcWV (PAO1) with chromosomally encoded SBPs; format: cell-based, Pseudomonas aeruginosa; settings: pNcbcWV
[5] = test system: Cbc core transporter CbcWV; format: cell-based, Pseudomonas aeruginosa; settings: MKH13, pNcbcWV, SBP None, substrate 10 μM, single replication
ChoXWV = molecular target: T1, ChoXWV (Sinorhizobium meliloti, UniProt Q92N37); assay: Competitive uptake, MKH13 expressing choXWV; format: cell-based; settings: pNchoXWV, SBP ChoX, [^14C]choline 10 μM, competitor 1 mM
T1 sequence (Q92N37 28-318): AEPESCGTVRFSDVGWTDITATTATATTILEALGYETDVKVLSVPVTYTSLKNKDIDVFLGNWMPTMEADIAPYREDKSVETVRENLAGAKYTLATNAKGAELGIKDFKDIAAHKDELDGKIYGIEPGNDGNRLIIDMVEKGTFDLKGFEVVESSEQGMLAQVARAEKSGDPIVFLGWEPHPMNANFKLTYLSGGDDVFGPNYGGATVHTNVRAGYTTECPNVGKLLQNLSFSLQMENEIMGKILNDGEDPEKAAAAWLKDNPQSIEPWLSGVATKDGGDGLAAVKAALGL
T1 sequence (Q92N36 1-281 partner): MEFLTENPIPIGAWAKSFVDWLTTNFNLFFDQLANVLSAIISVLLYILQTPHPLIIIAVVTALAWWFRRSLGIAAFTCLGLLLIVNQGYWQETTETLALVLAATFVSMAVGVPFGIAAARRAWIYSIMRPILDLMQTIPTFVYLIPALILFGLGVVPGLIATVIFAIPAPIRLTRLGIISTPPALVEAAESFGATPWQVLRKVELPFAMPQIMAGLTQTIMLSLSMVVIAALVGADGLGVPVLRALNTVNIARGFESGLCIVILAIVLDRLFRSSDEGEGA
T1 sequence (Q92N35 1-349 partner): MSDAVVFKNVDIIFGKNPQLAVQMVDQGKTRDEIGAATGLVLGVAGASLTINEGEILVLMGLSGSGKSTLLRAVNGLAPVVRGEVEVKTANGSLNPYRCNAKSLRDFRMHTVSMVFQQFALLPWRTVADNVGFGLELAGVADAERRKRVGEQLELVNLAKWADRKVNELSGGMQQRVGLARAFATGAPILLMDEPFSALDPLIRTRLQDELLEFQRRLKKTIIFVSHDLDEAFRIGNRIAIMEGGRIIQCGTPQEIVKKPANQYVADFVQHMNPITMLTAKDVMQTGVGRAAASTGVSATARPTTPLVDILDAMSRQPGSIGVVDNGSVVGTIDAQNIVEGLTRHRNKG

CbcWV with BetXB728a = format: cell-based, Pseudomonas syringae pv. syringae; settings: MKH13; pNcbcWV, pT-B3758; SBP BetXB728a; substrate 10 μM; single replication
CaiX with CbcWV = format: cell-based, Pseudomonas aeruginosa; settings: MKH13; pNcbcWV, pT-PA5388; SBP CaiX; [^14C]carnitine 10 μM; competitor 1 mM
[6] = test system: E. coli strains MKH13 and Acella; assay: Total uptake by E. coli strains carrying empty vector; format: cell-based, Escherichia coli
[7] = test system: S. meliloti ChoXWV transporter; format: cell-based, Sinorhizobium meliloti
[8] = test system: cbcXWV from PAO1 in QAC transporter-deficient BT strain; format: cell-based, Pseudomonas aeruginosa; settings: BT(pCbcPAO1), unlabelled competitor 0.5 mM, 10 min
CbcXWV from DC3000 = format: cell-based, Pseudomonas syringae pv. tomato; settings: Acella, pET-cbcDC3000; 1 mM IPTG; substrate 1 mM; mean (SE), n = 10
[9] = test system: complete Cbc transporter CbcXWV (PAO1); format: cell-based, Pseudomonas aeruginosa; settings: for Total uptake: pNcbcXWV; for choline uptake by CbcXWV: BT strain derivatives
[10] = test system: cbcXWV from DC3000 in QAC transporter-deficient BT strain; format: cell-based, Pseudomonas syringae pv. tomato; settings: BT(pCbcDC3000), unlabelled competitor 0.5 mM, 10 min
CbcX and CaiX with CbcWV = format: cell-based, Pseudomonas aeruginosa; settings: MKH13, pNcbcXWV, pT-PA5388, SBPs CbcX/CaiX, competitor 1 mM
CbcXWV from B728a = format: cell-based, Pseudomonas syringae pv. syringae; settings: Acella, pET-cbcB728a; 1 mM IPTG; substrate 1 mM; single colony
[11] = host BT2916Ko, substrate 10 μM, single replication
[12] = host BT0028Ko, substrate 10 μM, mean (SE), n = 2
[13] = host BT3758Ko, substrate 10 μM, mean (SE), n = 3
[14] = Acella, pET15b, 1 mM IPTG, substrate 1 mM, single colony
[15] = MKH13, pME6041, radiolabelled substrate 1 mM, mean (SE), n = 10
[16] = pNchoXW, host BT0028Ko, substrate 10 μM, mean (SE), n = 2
[17] = pNchoXW, host BT3758Ko, substrate 10 μM, mean (SE), n = 3
[18] = pNchoXWV, host BT2916Ko, substrate 10 μM, single replication
[19] = host BT2916Ko, substrate 1 mM, single replication
[20] = host BT0028Ko, substrate 1 mM, mean (SE), n = 2
[21] = host BT3758Ko, substrate 1 mM, mean (SE), n = 3

Structure (SMILES): C[N+](C)(C)CC(=O)O [Betaine, glycine betaine]
- % inhibition of uptake of [^14C]substrate ([1]; [^14C]betaine 5 μM): 93%
- % inhibition of uptake of [^14C]substrate ([1]; [^14C]carnitine 5 μM): 83%
- % inhibition of uptake of [^14C]substrate ([1]; [^14C]choline 5 μM): 19%
- Total uptake [2]: 2.7 nmol (mg protein)^−1
- Total uptake ([3]; host BT0028Ko, substrate 10 μM): 0.0 nmol (mg protein)^−1
- Total uptake [3, 11]: 0.0 nmol (mg protein)^−1
- Total uptake ([3]; host BT3758Ko, substrate 10 μM): 0.0 nmol (mg protein)^−1
- Total uptake (CbcWV with CaiXPAO1): 0 nmol (mg protein)^−1
- Total uptake [4, 12]: 17.2 (0.2) nmol (mg protein)^−1
- Total uptake [4, 11]: 17.2 nmol (mg protein)^−1
- Total uptake [4, 13]: 0.1 (0.01) nmol (mg protein)^−1
- Total uptake ([5]; Plasmid 2 None): 0 nmol (mg protein)^−1
- Total uptake ([5]; pTOK2T): 0 nmol (mg protein)^−1
- % inhibition of uptake of substrate by unlabelled competitor (ChoXWV): 3%
- Total uptake (CbcWV with BetXB728a): 11.9 nmol (mg protein)^−1
- % inhibition of uptake of substrate by unlabelled competitor (CaiX with CbcWV): 5%
- Total uptake [6, 14]: 8.2 nmol (mg protein)^−1
- Total uptake [6, 15]: 0.5 (0.5) nmol (mg protein)^−1
- Total uptake [7, 16]: 2.8 (0.3) nmol (mg protein)^−1
- Total uptake [7, 17]: 3.0 (0.64) nmol (mg protein)^−1
- Total uptake [7, 18]: 3.0 nmol (mg protein)^−1
- % inhibition of uptake of [^14C]substrate ([8]; [^14C]betaine 5 μM): 83%
- % inhibition of uptake of [^14C]substrate ([8]; [^14C]carnitine 5 μM): 84%
- % inhibition of uptake of [^14C]substrate ([8]; [^14C]choline 5 μM): 9%
- Total uptake (CbcXWV from DC3000): 17.0 (1.8) nmol (mg protein)^−1
- Total uptake [9, 12]: 16.1 (0.41) nmol (mg protein)^−1
- Total uptake [9, 11]: 16.0 nmol (mg protein)^−1
- Total uptake [9, 13]: 14.3 (0.24) nmol (mg protein)^−1
- % inhibition of uptake of [^14C]substrate ([10]; [^14C]betaine 5 μM): 89%
- % inhibition of uptake of [^14C]substrate ([10]; [^14C]carnitine 5 μM): 88%
- % inhibition of uptake of [^14C]substrate ([10]; [^14C]choline 5 μM): 12%
- % inhibition of uptake of substrate by unlabelled competitor (CbcX and CaiX with CbcWV; [^14C]betaine 10 μM): 88%
- % inhibition of uptake of substrate by unlabelled competitor (CbcX and CaiX with CbcWV; [^14C]choline 10 μM): −1%
- Total uptake (CbcXWV from B728a): 16.2 nmol (mg protein)^−1

Structure (SMILES): C[N+](C)(C)CCO [Choline, choline]
- % inhibition of uptake of [^14C]substrate ([1]; [^14C]betaine 5 μM): 3%
- % inhibition of uptake of [^14C]substrate ([1]; [^14C]carnitine 5 μM): 75%
- % inhibition of uptake of [^14C]substrate ([1]; [^14C]choline 5 μM): 93%
- Total uptake [2]: 4.7 nmol (mg protein)^−1
- Total uptake ([3]; host BT0028Ko, substrate 10 μM): 0.0 nmol (mg protein)^−1
- Total uptake ([3]; host BT0028Ko, substrate 1 mM): 0 nmol (mg protein)^−1
- Total uptake [3, 11]: 0.0 nmol (mg protein)^−1
- Total uptake [3, 19]: 0 nmol (mg protein)^−1
- Total uptake ([3]; host BT3758Ko, substrate 10 μM): 0.0 nmol (mg protein)^−1
- Total uptake ([3]; host BT3758Ko, substrate 1 mM): 0 nmol (mg protein)^−1
- Total uptake (CbcWV with CaiXPAO1): 0 nmol (mg protein)^−1
- Total uptake [4, 12]: 0.11 (0.05) nmol (mg protein)^−1
- Total uptake [4, 20]: 8.9 (1.4) nmol (mg protein)^−1
- Total uptake [4, 11]: 0.15 nmol (mg protein)^−1
- Total uptake [4, 19]: 8.6 nmol (mg protein)^−1
- Total uptake [4, 13]: 0.15 (0.05) nmol (mg protein)^−1
- Total uptake [4, 21]: 7.1 (0.6) nmol (mg protein)^−1
- Total uptake ([5]; Plasmid 2 None): 0 nmol (mg protein)^−1
- Total uptake ([5]; pTOK2T): 0 nmol (mg protein)^−1
- % inhibition of uptake of substrate by unlabelled competitor (ChoXWV): 98%
- Total uptake (CbcWV with BetXB728a): 0 nmol (mg protein)^−1
- % inhibition of uptake of substrate by unlabelled competitor (CaiX with CbcWV): 5%
- Total uptake [6, 14]: 0 nmol (mg protein)^−1
- Total uptake [6, 15]: 0.2 (0.1) nmol (mg protein)^−1
- Total uptake [7, 16]: 7.8 (0.07) nmol (mg protein)^−1
- Total uptake ([7]; pNchoXW, host BT0028Ko, substrate 1 mM, mean (SE), n = 2): 8.5 (1.4) nmol (mg protein)^−1
- Total uptake [7, 17]: 8.6 (1.28) nmol (mg protein)^−1
- Total uptake ([7]; pNchoXW, host BT3758Ko, substrate 1 mM, mean (SE), n = 3): 7.4 (0.8) nmol (mg protein)^−1
- Total uptake [7, 18]: 6.5 nmol (mg protein)^−1
- Total uptake ([7]; pNchoXWV, host BT2916Ko, substrate 1 mM, single replication): 6.1 nmol (mg protein)^−1
- % inhibition of uptake of [^14C]substrate ([8]; [^14C]betaine 5 μM): −6%
- % inhibition of uptake of [^14C]substrate ([8]; [^14C]carnitine 5 μM): 77%
- % inhibition of uptake of [^14C]substrate ([8]; [^14C]choline 5 μM): 84%
- Total uptake (CbcXWV from DC3000): 15.0 (2.4) nmol (mg protein)^−1
- choline uptake by CbcXWV ([9]; choline 10 μM (summary of Table 4)): 16 to 18 nmol (mg protein)^−1
- choline uptake by CbcXWV ([9]; choline 1 mM (summary of Table 4)): 562–648 nmol (mg protein)^−1
- share of choline uptake mediated by CbcX ([9]; at low (10 μM) and high (1 mM) [^14C]choline concentrations, BT derivatives): approximately 99%
- Total uptake [9, 12]: 18.2 (0.36) nmol (mg protein)^−1
- Total uptake [9, 20]: 562 (6.8) nmol (mg protein)^−1
- Total uptake [9, 11]: 16.2 nmol (mg protein)^−1
- Total uptake [9, 19]: 644 nmol (mg protein)^−1
- Total uptake [9, 13]: 16.4 (0.18) nmol (mg protein)^−1
- Total uptake [9, 21]: 648 (27.5) nmol (mg protein)^−1
- % inhibition of uptake of [^14C]substrate ([10]; [^14C]betaine 5 μM): −6%
- % inhibition of uptake of [^14C]substrate ([10]; [^14C]carnitine 5 μM): 81%
- % inhibition of uptake of [^14C]substrate ([10]; [^14C]choline 5 μM): 89%
- % inhibition of uptake of substrate by unlabelled competitor (CbcX and CaiX with CbcWV; [^14C]betaine 10 μM): 99%
- % inhibition of uptake of substrate by unlabelled competitor (CbcX and CaiX with CbcWV; [^14C]choline 10 μM): 96%
- Total uptake (CbcXWV from B728a): 19.2 nmol (mg protein)^−1
